# In patent US20250381173A1, “Long-Lasting Anaesthetic Formulation” (BERTIE INTERNATIONAL AB, priority 2022, published 2025):
# Where “and” joins values, the source holds several entries; their conditions need not be identical. Identical values can stand only once.
# Legend:
# [1] = Impurity analysis: 2,6-dimethylaniline (Impurity H) by UPLC-UV and UPLC-UV-MS; format: physicochemical
# Method: Qualitative LC-analyzes were performed on samples from the stage in the formulation procedure after ropivacaine was added. LC analyzes with ultraviolet light (UV) detection were performed on a Thermo Fischer Scientific Vanquish UPLC instrument employing a Waters BEH C18 1.7 um 2.1*150 mm chromatographic column at 0.3 mL/min flow rate and otherwise method according to European pharmacopoeia 11.1, monograph 01/2017:2335 ‘Ropivacaine Hydrochloride Monohydrate’.
# LC analyzes with UV and MS detection were carried out on a Waters Acquity UPLC Quattro Micro MS-instrument with electrospray ionisation (ESI) in positive-negative switching mode. The method used was based on monograph 01/2017:2335 as above, however, the mobile phase was changed to a MS-compatible one; instead of phosphate buffer 0.1% NH3/MeCN with gradient elution was used.
# One of the impurities of ropivacaine specified in the pharmacopeial monograph Eu Pharm 11.1, 01/2017:2335 as Impurity H, the carcinogenic 2,6-dimethylaniline, was analyzed in prepared formulations by LC-UV and LC-UV-MS against 2,6-dimethylaniline reference material.
# Specified Impurity H of ropivacaine of Ph. Eur. 11.1, 01/2017:2335-2,6-dimethylaniline—was not detected (<0.05 area-%), neither in the ropivacaine reference standard nor in the formulated samples of ropivacaine of microwave heated triethanolamine, as analyzed by UPLC-UV (240 nm) and UPLC-UV-MS (Full scan m/z 50-800). As such, it was concluded that 2,6-dimethylaniline is not produced in the treatment of a formulation of the present disclosure.
# female rats [2] = assay: Local anesthesia pilot study, prick (sensitivity) test after one s.c. injection; format: in vivo, Sprague Dawley rats; conditions: data not shown
# Method: (§1) In order to evaluate administration of local anesthesia in a sensitivity test in female rats a pilot- and an efficacy study was performed.
# (§2) Sprauge Dawley rats (females, 10 weeks) were acquired from Janvier Europe. Rats were housed in the animal facility, Medicon Village, Lund, Sweden. The rats were kept at 12 h light/dark cycles in polystyrene cages (type III cages, 2-3 rats per cage) comprising wood shavings. The rats were fed with standard rodent diet and water ad libitum. The rats were acclimatized for approximately one week before initiation of the experiment. The rats were identified by a marking on the tail with a permanent marker day 1.
# Formulation of reference anesthesia ropivacaine, was prepared such that the pH of the composition and the concentration and dose of ropivacaine where essentially identical to the compositions of the invention. The concentration of Ropivacaine was 5 mg/ml in the formulation and was administered at a dose of 1 mg/kg bodyweight in 2 animals, 0.25 mg/kg bodyweight in 2 animals; and placebo PBS (phosphate buffered saline) in 2 animals. The vehicle and reference anesthesia were administrated s. c. (subcutaneous) in one single injection at time 0.
# The rats were shaved at the back and habituated to the experimental environment for 30 minutes prior to the testing. […] The rat's reaction in the form of wrinkling of the skin was evaluated by ocular inspection.
# sciatic nerve = assay: In vivo test 3: sensitivity test (tweezer), motor and sensor block after s.c. injection close to the sciatic nerve; parameters: species or system Wistar albino rats
# Method: Male Wistar albino rats, weighing 200-250 g, obtained from SYLAB Experimental Animals Laboratory, were used in the experiments. The animals were kept in a 12 hour light-12 hour dark light period under standard conditions and fed with standard pellet water (ad libitum). All studies were carried out in accordance with international ethical rules, without abusing animal rights.
# Formulations used were the same as in Example 2, with additional storage. The formulations were stored for 7 months at different temperatures. At first, the formulations were stored in the freezer for 6 months. Thereafter there were alterations in temperature storage; the formulations were iteratively stored in room temperature and in the fridge before use.
# The compositions were administrated s. c. in one single injection at time 0. The compositions were administrated to a position in close proximity to the sciatic nerve. • Group 1: Ropivacaine 7.5 mg/ml, 1.1-1.2 ml. Total=at least 8.25 mg ropivacaine. This composition is commercial ropivacaine (Ropivacaina Inibsa, injectable solution). • Group 2: Ropivacaine 4 mg/ml, 2 ml, pH 5 (Test 1). Total=8 mg ropivacaine.
# The sensitivity test was performed at 9 different time points within 9 hours after administration of the test item (1 h, […], 2 h, 3 h, 4 h, 5 h, 6 h, 7 h, 8 h and 9 h) by touching each rat with a tweezer. The rat's reaction in the form of wrinkling of the skin was evaluated by ocular inspection, giving each monitored response a value of 0 (no response), 0.5 (low response) or 1 (response).
# female rats [3] = assay: Local anesthesia efficacy test, prick test after one s.c. injection; format: in vivo, Sprague Dawley rats; conditions: 0.25 mg/kg s.c.
# Method: as §1, §2
# Formulation of reference anesthesia Ropivacaine, was prepared in the same way as for the pilot study.
# The rats were shaved at the back and habituated to the experimental environment for 30 minutes prior to the testing. The sensitivity test was performed at 6 different time points within 6 hours after administration of the test item (30 min, 1 h, 2 h, 3 h, 4 h, 5 h) by touching each rat with a needle. The rat's reaction in the form of wrinkling of the skin was evaluated by ocular inspection, giving each monitored response a value of 0 (no response) or 1 (response).
# [4] = individual rat, score 0, 0.5 or 1, 0 h
# [5] = individual rat, score 0, 0.5 or 1, 1 h
# [6] = individual rat, score 0, 0.5 or 1, 2 h
# [7] = individual rat, score 0, 0.5 or 1, 3 h
# [8] = individual rat, score 0, 0.5 or 1, 4 h
# [9] = individual rat, score 0, 0.5 or 1, 5 h
# [10] = individual rat, score 0, 0.5 or 1, 6 h
# [11] = individual rat, score 0, 0.5 or 1, 7 h
smiles,measurement,setting,value
"CCCN1CCCC[C@H]1C(=O)Nc1c(C)cccc1C [Ropivacaine, ropivacaine]","Impurity H (2,6-dimethylaniline), UPLC-UV-MS",[1]; Full scan m/z 50-800,Not detected
same,"Impurity H (2,6-dimethylaniline), UPLC-UV",[1]; UV 240 nm,Not detected
same,"2,6-dimethylaniline (Impurity H) level","[1]; not detected, UPLC-UV (240 nm) and UPLC-UV-MS",< 0.05 area-%
same,duration of the anesthetic effect,female rats [2]; 0.25 mg/kg bodyweight s.c.,2 h
same,duration of the anesthetic effect,female rats [2]; 1 mg/kg bodyweight s.c.,5 h
same,"Loss Motor block, average",sciatic nerve; group average,3.3 h
same,"loss of Sensor block, average",sciatic nerve; group average,4.3 h
same,Loss Motor block,sciatic nerve; individual rat,4 h (4×) and 3 h (2×)
same,loss of Sensor block,sciatic nerve; individual rat,6 h (2×) and 3 h (2×) and 4 h (2×)
same,"Motor Block, test time 0 h",sciatic nerve; [4],1 (5×) and 0.5
same,"Sensor Block, test time 0 h",sciatic nerve; [4],1
same,"Motor Block, test time 1 h",sciatic nerve; [5],1 (5×) and 0.5
same,"Sensor Block, test time 1 h",sciatic nerve; [5],1
same,"Motor Block, test time 2 h",sciatic nerve; [6],1 (4×) and 0.5 (2×)
same,"Sensor Block, test time 2 h",sciatic nerve; [6],1
same,"Motor Block, test time 3 h",sciatic nerve; [7],0.5 and 0 (3×) and 1 (2×)
same,"Sensor Block, test time 3 h",sciatic nerve; [7],1 (4×) and 0 (2×)
same,"Motor Block, test time 4 h",sciatic nerve; [8],0
same,"Sensor Block, test time 4 h",sciatic nerve; [8],1 and 0 (4×) and 0.5
same,"Motor Block, test time 5 h",sciatic nerve; [9],0
same,"Sensor Block, test time 5 h",sciatic nerve; [9],1 and 0 (2×) and 0.5
same,"Motor Block, test time 6 h",sciatic nerve; [10],0
same,"Sensor Block, test time 6 h",sciatic nerve; [10],0
same,"Motor Block, test time 7 h",sciatic nerve; [11],0
same,"Sensor Block, test time 7 h",sciatic nerve; [11],0
same,Average value of first response,female rats [3]; group of 3 rats,1.8 h
same,"Prick test response, 0.5 h","female rats [3]; individual rat, 0 = no response (anesthesia), 1 = response, 0.5 mg/ml, 0.5 h, 0.25 mg/kg",0 (2×) and 1
same,"Prick test response, 1 h","female rats [3]; individual rat, 0 = no response (anesthesia), 1 = response, 1 h, 0.25 mg/kg",0 (2×) and 1
same,"Prick test response, 2 h","female rats [3]; individual rat, 0 = no response (anesthesia), 1 = response, 2 h, 0.25 mg/kg",1 (2×) and 0
same,"Prick test response, 3 h","female rats [3]; individual rat, 0 = no response (anesthesia), 1 = response, 3 h",1
same,"Prick test response, 4 h","female rats [3]; individual rat, 0 = no response (anesthesia), 1 = response, 4 h, 0.25 mg/kg",1 (2×) and 0
same,"Prick test response, 5 h","female rats [3]; individual rat, 0 = no response (anesthesia), 1 = response, 5 h",1
